Where two headings read alike, the source gives them in different places.
How the values were obtained:
ERG-ETS domain = molecular target: T1, ERG-ETS domain (Homo sapiens, UniProt P11308); assay: NMR-monitored titration (15N-HSQC) with ERG-ETS domain; details: 15N-HSQC titration, 1:1 binding isotherm; pH 6.5; read-out: KD for interaction with recombinant ERG-ETS domain
T1 construct: A pET28a plasmid encoding residues 307–400 of the ERG-ETS domain; His6 (cleaved yes); made in house; host or cells: E. coli BL21 (λDE3)
T1 sequence (P11308 307-400): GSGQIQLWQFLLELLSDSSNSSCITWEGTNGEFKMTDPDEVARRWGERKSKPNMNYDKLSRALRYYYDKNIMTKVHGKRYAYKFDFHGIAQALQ
Protocol: ERG-ETS domain expression and purification. A pET28a plasmid encoding residues 307–400 of the ERG-ETS domain was expressed in E. coli BL21 (λDE3). Cultures of 1 L were grown at 37°C in M9 media supplied with 3 gm/L ^13C6-glucose and/or 1 gm/L ^15NH4Cl. Cells were allowed to grow to O.D.600 = 0.6 and protein expression was induced by adding 1 mM IPTG. After an induction time of 4 h, cells were harvested by centrifugation and stored at −80 °C for at least 1 round of freeze/thaw. Cells were resuspended in 40 mL of lysis buffer for every 1 L of culture. Cells were lysed by passing through 5 rounds of homogenization and 10 mins of sonication. The cell lysate centrifuged at 15k rpm for 1 hr, and the supernatant subjected to nickel column purification. The column was washed using 25 mM imidazole (50 mM phosphate, 1 M NaCl, pH 7.4) and proteins were eluted with 1 M imidazole. Fractions containing the ETS domain were confirmed by SDS-PAGE and pooled. […] NMR data were recorded at 25 or 28°C on cryoprobe-equipped 850 MHz Bruker Avance III spectrometer. Data were processed and analyzed using NMRpipe and Sparky. […] NMR-monitored titrations. Interactions of compounds with the ERG-ETS domain were monitored via sensitivity-enhanced ^15N-HSQC spectra. […] Chemical shift perturbations were calculated from the combined amide ^1H^N and ^15N shift changes as Δδ = [(0.2 × ΔδN)^2 + (ΔδH)^2]^1/2. […]

ERG [1] = molecular target: T2, ERG (Homo sapiens, UniProt P11308); assay: Dual reporter luciferase assay (pETS-luc) in PNT1B-ERG cells; type: cell-based; details: 0.1-100 μM, 48 h treatment
T2 construct: expressed in transfected cells; host or cells: PNT1B-ERG (immortalized prostatic epithelial PNT1B cells stably overexpressing ERG)
T2 sequence (P11308 1-479): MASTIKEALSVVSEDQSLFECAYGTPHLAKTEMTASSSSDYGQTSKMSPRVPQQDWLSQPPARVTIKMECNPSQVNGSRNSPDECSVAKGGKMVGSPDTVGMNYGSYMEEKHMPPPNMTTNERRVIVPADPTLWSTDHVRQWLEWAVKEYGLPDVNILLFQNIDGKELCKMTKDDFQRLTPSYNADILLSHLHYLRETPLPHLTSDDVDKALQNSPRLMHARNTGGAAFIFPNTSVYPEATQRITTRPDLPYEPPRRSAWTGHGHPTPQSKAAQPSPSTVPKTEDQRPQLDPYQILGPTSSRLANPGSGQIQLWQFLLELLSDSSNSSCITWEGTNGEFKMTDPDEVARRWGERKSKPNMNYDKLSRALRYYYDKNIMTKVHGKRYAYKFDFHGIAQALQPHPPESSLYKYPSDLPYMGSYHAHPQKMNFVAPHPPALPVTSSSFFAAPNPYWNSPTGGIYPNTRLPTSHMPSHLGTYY
Protocol: (§1) All of the compounds selected from the virtual screening were tested in a luciferase-based ERG-responsive reporter assay, using two ERG-overexpressing cell lines, VCaP and PNT1B-ERG, previously developed in house. […] Data were normalized first to Renilla luciferase and then to the DMSO-media control on each plate, unless otherwise stated. Initial hit compounds were identified as those with an average normalized luciferase reading (firefly luciferase/Renilla luciferase readings) that is 60% or less of the average normalized luciferase reading of the DMSO-media control (i.e. 40% or more reduction of luciferase activity) at 10 μM. Representative example of raw Renilla luciferase readings presented in Supplementary Figure 9B. The luciferase assays were repeated for each lead compound under multiple concentrations (0.1 to 100 μM) to establish a dose-dependent response and an IC50 value. AR reporter assay was performed as previously described.

ERG [2] = molecular target: T3, ERG (Homo sapiens, UniProt P11308); assay: Dual reporter luciferase assay (pETS-luc) in VCaP cells; type: cell-based; details: 0.1-100 μM, 48 h treatment
T3 construct: VCaP (endogenous overexpression); endogenous in cells; host or cells: VCaP (whole cells for A2 and A17; nuclear extract for A16)
T3 sequence (P11308 33-479 limits assumed): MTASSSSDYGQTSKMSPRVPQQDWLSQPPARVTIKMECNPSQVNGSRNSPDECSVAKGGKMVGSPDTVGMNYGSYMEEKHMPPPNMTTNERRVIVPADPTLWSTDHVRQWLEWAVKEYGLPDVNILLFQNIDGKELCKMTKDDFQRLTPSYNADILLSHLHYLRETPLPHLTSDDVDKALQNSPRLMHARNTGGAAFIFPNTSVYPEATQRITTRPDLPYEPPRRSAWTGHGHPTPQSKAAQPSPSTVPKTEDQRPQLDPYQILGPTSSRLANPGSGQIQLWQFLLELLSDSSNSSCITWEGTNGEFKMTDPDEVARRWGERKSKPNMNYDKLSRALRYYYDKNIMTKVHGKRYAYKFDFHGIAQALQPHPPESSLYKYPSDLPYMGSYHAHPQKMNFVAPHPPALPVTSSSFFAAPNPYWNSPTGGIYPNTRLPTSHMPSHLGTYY
Protocol: as §1

[3] = Compound solubility and stability (LC-PDA-MS); type: physicochemical
Protocol: This […] […] Data was analyzed using FlowJo Eppendorf tubes. Saturated PBS samples were further software (TreeStar, USA). […] After 24 h, plates were treated with vehicle control, […] and a Quattro Premier (Waters). […] […] diluting stocks (50 mM in DMSO) 1000x in Methanol (standard), PBS, or media. Resulting solutions were clarified by centrifugation and an aliquot of the supernatant was extracted with 2 volumes acetonitrile. VPC-18005 solubility determined as fraction remaining as quantified by LC-PDA-MS versus the methanol solution as standard.

Row | Compound | Kd (ERG-ETS domain) [µM] | IC50 (ERG [1]) [µM] | IC50 (ERG [2]) [µM] | solubility at 1 h ([3]; cell culture media (RPMI + 5% charcoal stripped serum), plasma or biological fluid, kinetic from dmso stock, RPMI + 5% CSS, 50 mM DMSO stock diluted 1,000x) [µM] | Media solubility ([3]; media) | Stability in media (fraction remaining) ([3]; media, 3 days, RT) [%] | Media solubility [3] | Stability in media (fraction remaining) ([3]; 72 h) [%]
1 | CC(C)c1ccc(C=N/N=C2\NC(=O)[C@@H](CC(=O)O)S2)cc1 (stereo in doubt) [VPC-18005, 2-((Z)-2-(((Z)-4-isopropylbenzylidene)hydrazono)-4-oxothiazolidin-5-yl)acetic acid] | ~3000 | 3 | 6 | > 50 | soluble in media | 93 |  | 
2 | COc1ccc(C(=O)CC2(O)C(=O)Nc3c(Cl)ccc(Cl)c32)cc1 (stereo not shown) [YK-4-279, reference compound] |  | 5 | 16 |  |  |  | soluble | 60
